Legend:
[1] = tested on: Phakopsora pachyrhizi (the causal agent of Asian soybean rust); experiment: Test A: preventive spray on soybean seedlings, visual disease rating (100 = 100% control; * 50 ppm, ** 10 ppm, *** 250 ppm); format: in vivo; conditions: 100 = 100% disease control
Summary of the method: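 Soybean seedlings sprayed to run-off with compound suspended in acetone/water with 250 ppm PEG400 surfactant, inoculated next day with P. pachyrhizi spores. Kept 24 h saturated at 22 °C, then 8 days at 22 °C before visual rating of disease control (0-100) relative to controls.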

[2] = tested on: Puccinia recondita f. sp. tritici (the causal agent of wheat leaf rust); experiment: Test B: preventive spray on wheat seedlings, disease rating (100 = 100% control; * 50 ppm, ** 10 ppm, *** 250 ppm); format: in vivo; conditions: 100 = 100% disease control
Summary of the method: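 Wheat seedlings sprayed to run-off with compound in acetone/water (50/50) containing 250 ppm PEG400, inoculated next day with Puccinia recondita f. sp. tritici spores. Held 24 h saturated at 20° C, then 6 days at 20° C; disease control rated 0–100 relative to controls.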

[3] = 10 ppm test suspension, soybean seedlings
[4] = 10 ppm test suspension, wheat seedlings
[5] = 50 ppm test suspension, soybean seedlings
[6] = 50 ppm test suspension, wheat seedlings
[7] = 50 ppm test suspension, 0 = no control
[8] = 10 ppm test suspension, 0 = no control

## CCO/C(=C\Oc1ccc(C#N)cc1)C(F)(F)F [compound 144]
[1]; [3]
  Test A disease control rating: 78%
[2]; [4]
  Test B disease control rating: 0%

## CCOC(=O)c1ccn(Cc2ccc(OCC(O)(O)C(F)(F)F)cc2)n1 [compound 233]
[1]; [5]
  Test A disease control rating: 100%
[2]; [6]
  Test B disease control rating: 96%

## CN(C)C(=O)C1=NOC(Cc2ccc(OCC3(C(F)(F)F)OCCO3)cc2)C1 (stereo not shown) [compound 290]
[1]; [7]
  Test A disease control rating: 50%
[2]; [7]
  Test B disease control rating: 19%

## CCOC(=O)c1ccnn1Cc1ccc(F)c(O/C=C(\OCC)C(F)(F)F)c1 [compound 419]
[1]; [8]
  Test A disease control rating: 0%
[2]; [8]
  Test B disease control rating: 0%

## CON(Cc1ccc(OCC2(C(F)(F)F)OCCO2)cc1)C(=O)OC(C)(C)C [compound 238]
[1]; [3]
  Test A disease control rating: 73%
[2]; [4]
  Test B disease control rating: 0%

## CCOC(=O)NCc1ccc(OCC2(C(F)(F)F)OCCO2)cc1 [compound 78]
[1]; [3]
  Test A disease control rating: 94%
[2]; [4]
  Test B disease control rating: 0%

## CCCCCCOC(=O)c1cnn(Cc2ccc(OCC3(C(F)(F)F)OCCO3)cc2)c1 [compound 16]
[1]; [3]
  Test A disease control rating: 99%
[2]; [4]
  Test B disease control rating: 0%

## CCCNC(=O)c1ccc(O/C=C(\OCC)C(F)(F)F)cc1 [compound 104]
[1]; [3]
  Test A disease control rating: 0%
[2]; [4]
  Test B disease control rating: 80%

## CCO/C(=C\Oc1ccc(Cc2nc(C(=O)NCC3CC3)cs2)cc1)C(F)(F)F [compound 130]
[1]; [3]
  Test A disease control rating: 100%
[2]; [4]
  Test B disease control rating: 0%

## CCOC(=COc1ccc(Cc2ccnc(S(C)(=O)=O)n2)cc1)C(F)(F)F [compound 307]
[1]; [7]
  Test A disease control rating: 0%
[2]; [7]
  Test B disease control rating: 0%

## CCOC(=O)c1cc(OC)n(Cc2ccc(O/C=C(\OCC)C(F)(F)F)cc2)n1 [compound 90]
[1]; [3]
  Test A disease control rating: 100%
[2]; [4]
  Test B disease control rating: 0%

## CCO/C(=C\Oc1ccc(Cn2cc(C#N)cn2)cc1)C(F)(F)F [compound 205]
[1]; [3]
  Test A disease control rating: 0%
[2]; [4]
  Test B disease control rating: 0%

## CCO/C(=C\Oc1ccc(CNC(=O)CC(F)(F)F)cc1)C(F)(F)F [compound 113]
[1]; [3]
  Test A disease control rating: 0%
[2]; [4]
  Test B disease control rating: 0%

## C=C(C)COC(=O)c1cnn(Cc2cccc(O/C=C(\OCC)C(F)(F)F)c2)c1 [compound 335]
[1]; [8]
  Test A disease control rating: 100%
[2]; [8]
  Test B disease control rating: 0%

## CCOC(=O)c1cnn(Cc2ccc(OCC3(C(F)(F)F)OC(=O)C(C)O3)cc2)c1 (stereo not shown) [compound 187]
[1]; [3]
  Test A disease control rating: 93%
[2]; [4]
  Test B disease control rating: 74%

## O=C(OCC(F)(F)F)c1cnn(Cc2ccc(OCC3(C(F)(F)F)OCCO3)cc2)c1 [compound 134]
[1]; [3]
  Test A disease control rating: 89%
[2]; [4]
  Test B disease control rating: 32%

## CCOC(=O)c1cnn(Cc2ccc(CO/C=C(\OCC)C(F)(F)F)cc2)c1 [compound 167]
[1]; [3]
  Test A disease control rating: 38%
[2]; [4]
  Test B disease control rating: 0%

## CCOC(=COc1ccc(Cn2ccc(C(F)(F)F)n2)cc1)C(F)(F)F [compound 181]
[1]; [3]
  Test A disease control rating: 0%
[2]; [4]
  Test B disease control rating: 0%

## CC(C)OC(=O)c1cnn(Cc2ccc(OCC(O)(O)C(F)(F)F)cc2)c1 [compound 39]
[1]; [3]
  Test A disease control rating: 91%
[2]; [4]
  Test B disease control rating: 79%

## CCOC(=O)c1cnn(Cc2ccc(O/C=C(/OCC)C(F)(F)F)cc2)c1 [compound 399]
[1]; Phakopsora pachyrhizi, 50 ppm test suspension, 0 = no control
  pest or weed control at 50 ppm: 97%
[2]; Puccinia recondita, 50 ppm test suspension, 0 = no control
  pest or weed control at 50 ppm: 0%

## CCOC(=O)NCc1ccc(O/C=C(\OCC)C(F)(F)F)cc1 [compound 111]
[1]; [3]
  Test A disease control rating: 0%
[2]; [4]
  Test B disease control rating: 0%

## FC(F)(F)C1(COc2ccc(CNC(=S)NC3CCCCC3)cc2)OCCO1 [compound 77]
[1]; [3]
  Test A disease control rating: 99%
[2]; [4]
  Test B disease control rating: 0%

## CCO/C(=C\Oc1ccc(C(=O)NC(C)C)cc1)C(F)(F)F [compound 101]
[1]; [3]
  Test A disease control rating: 0%
[2]; [4]
  Test B disease control rating: 0%

## CCCCOC(=O)c1cnn(Cc2cccc(O/C=C(\OCC)C(F)(F)F)c2)c1 [compound 339]
[1]; [8]
  Test A disease control rating: 100%
[2]; [8]
  Test B disease control rating: 0%

## O=C(NCC1CC1)c1csc(Cc2ccc(OCC(O)(O)C(F)(F)F)cc2)n1 [Compound 69]
[1]; [3]
  Test A disease control rating: 98%
[2]; [4]
  Test B disease control rating: 96%

## CCOC(=O)c1csc(Cc2cccc(O/C=C(\OCC)C(F)(F)F)c2)n1 [compound 370]
[1]; [8]
  Test A disease control rating: 0%
[2]; [8]
  Test B disease control rating: 0%

## CCO/C(=C\Oc1ccc(Cn2cc(C(=O)OC(C)C)cn2)cc1)C(F)(F)F [compound 139]
[1]; [3]
  Test A disease control rating: 100%
[2]; [4]
  Test B disease control rating: 0%

## CCOC(=O)c1cnn(Cc2cc(C)cc(O/C=C(\OCC)C(F)(F)F)c2)c1 [compound 406]
[1]; [7]
  Test A disease control rating: 0%
[2]; [7]
  Test B disease control rating: 0%

## CCO/C(=C\Oc1ccc(CS(=O)(=O)CC)cc1)C(F)(F)F [compound 62]
[1]; [3]
  Test A disease control rating: 0%
[2]; [4]
  Test B disease control rating: 0%

## CCOC(=O)c1cnn(Cc2ccc(OCC3(C(F)(F)F)OCCCO3)cc2)c1 [compound 52]
[1]; [3]
  Test A disease control rating: 99%
[2]; [4]
  Test B disease control rating: 0%

## C=CCO/C(=C\Oc1ccc(Cn2cc(C(=O)OCC)cn2)cc1)C(F)(F)F [compound 55]
[1]; [3]
  Test A disease control rating: 0%
[2]; [4]
  Test B disease control rating: 0%

## CCOC(=O)c1cnn(Cc2ccc(OCC(O)(O)C(F)(F)F)cc2)c1 [compound 227]
[1]; [3]
  Test A disease control rating: 99%
[2]; [4]
  Test B disease control rating: 55%

## CCO/C(=C\Oc1ccc(CNC(=O)CC)cc1)C(F)(F)F [compound 150]
[1]; [3]
  Test A disease control rating: 33%
[2]; [4]
  Test B disease control rating: 0%

## CCO/C(=C\Oc1cccc(Cn2cc(C(=O)OCCCOC)cn2)c1)C(F)(F)F [compound 351]
[1]; [8]
  Test A disease control rating: 100%
[2]; [8]
  Test B disease control rating: 0%

## COC(=O)c1cnn(Cc2ccc(OCC(O)(O)C(F)(F)F)cc2)c1 [compound 37]
[1]; [3]
  Test A disease control rating: 99%
[2]; [4]
  Test B disease control rating: 86%

## N#CCc1ccc(OCC2(C(F)(F)F)OCCO2)cc1 [compound 239]
[1]; [3]
  Test A disease control rating: 0%
[2]; [4]
  Test B disease control rating: 0%

## CN(C)C(=O)C1=NOC(c2ccc(OCC3(C(F)(F)F)OCCO3)cc2)C1 (stereo not shown) [compound 22]
[1]; [3]
  Test A disease control rating: 38%
[2]; [4]
  Test B disease control rating: 0%

## CCOC(=O)c1cn(Cc2cccc(O/C=C(\OCC)C(F)(F)F)c2)cn1 [compound 446]
[1]; Phakopsora pachyrhizi, 10 ppm test suspension, 0 = no control
  pest or weed control at 10 ppm: 98%
[2]; Puccinia recondita, 10 ppm test suspension, 0 = no control
  pest or weed control at 10 ppm: 0%

## CCO/C(=C\Oc1ccc(C(=O)O)cc1)C(F)(F)F [compound 72]
[1]; [5]
  Test A disease control rating: 13%
[2]; [6]
  Test B disease control rating: 0%

## O=S(=O)(NCc1ccc(OCC2(C(F)(F)F)OCCO2)cc1)C(F)(F)F [compound 207]
[1]; [3]
  Test A disease control rating: 0%
[2]; [4]
  Test B disease control rating: 0%

## CC(C)OC(=O)c1cnn(Cc2ccc(OCC3(C(F)(F)F)OCCO3)cc2)c1 [compound 14]
[1]; [3]
  Test A disease control rating: 100%
[2]; [4]
  Test B disease control rating: 0%

## CCO/C(=C\Oc1cccc(Cn2cc(C(=O)OCCCC(F)(F)F)cn2)c1)C(F)(F)F [compound 355]
[1]; [8]
  Test A disease control rating: 100%
[2]; [8]
  Test B disease control rating: 0%

## CCO/C(=C\Oc1ccc(Cn2ccc(C(=O)OCC(C)C)n2)cc1)C(F)(F)F [compound 357]
[1]; [8]
  Test A disease control rating: 100%
[2]; [8]
  Test B disease control rating: 9%

## O=C(OCC1CCCC1)c1cnn(Cc2ccc(OCC3(C(F)(F)F)OCCO3)cc2)c1 [compound 284]
[1]; [8]
  Test A disease control rating: 100%
[2]; [8]
  Test B disease control rating: 0%

## CCO/C(=C\Oc1cccc(Cn2cc(C(=O)OCCC(F)(F)F)cn2)c1)C(F)(F)F [compound 348]
[1]; [8]
  Test A disease control rating: 100%
[2]; [8]
  Test B disease control rating: 0%

## CCOC(=O)c1ccnn1Cc1cc(C)cc(O/C=C(\OCC)C(F)(F)F)c1 [compound 462]
[1]; [8]
  Test A disease control rating: 0%
[2]; [8]
  Test B disease control rating: 0%

## CCOC(=O)c1cnn(Cc2ccc(O/C=C(\OCC)C(F)(F)F)cc2)c1 [compound 298]
[1]; [8]
  Test A disease control rating: 0%
[2]; [8]
  Test B disease control rating: 0%

## CCO/C(=C\Oc1ccc(Cn2c(=O)oc3ccccc32)cc1)C(F)(F)F [compound 226]
[1]; [3]
  Test A disease control rating: 0%
[2]; [4]
  Test B disease control rating: 0%

## C=C(C)COC(=O)c1cnn(Cc2ccc(OCC(O)(O)C(F)(F)F)cc2)c1 [compound 40]
[1]; [3]
  Test A disease control rating: 91%
[2]; [4]
  Test B disease control rating: 68%

## O=C(OCCCCl)c1cnn(Cc2ccc(OCC3(C(F)(F)F)OCCO3)cc2)c1 [compound 161]
[1]; [3]
  Test A disease control rating: 100%
[2]; [4]
  Test B disease control rating: 0%

## CS(=O)(=O)c1ccc(OCC(O)(O)C(F)(F)F)cc1 [compound 31]
[1]; [3]
  Test A disease control rating: 44%
[2]; [4]
  Test B disease control rating: 93%

## CCOC(=O)c1cnn(Cc2cccc(O/C=C(\OCC)C(F)(F)F)c2C)c1 [compound 303]
[1]; [7]
  Test A disease control rating: 0%
[2]; [7]
  Test B disease control rating: 0%

## CCNC(=O)N1CC(c2ccc(OCC3(C(F)(F)F)OCCO3)cc2)C1 [compound 411]
[1]; [7]
  Test A disease control rating: 87%
[2]; [7]
  Test B disease control rating: 0%

## CCO/C(=C\Oc1ccc(Cn2ccc(C(=O)OCC(C)=O)n2)cc1)C(F)(F)F [compound 359]
[1]; [8]
  Test A disease control rating: 100%
[2]; [8]
  Test B disease control rating: 0%

## CCOC(=COc1ccc(CN2CCC(C(=O)OC)CC2)cc1)C(F)(F)F [compound 309]
[1]; [8]
  Test A disease control rating: 100%
[2]; [8]
  Test B disease control rating: 0%

## NCc1ccc(OCC2(C(F)(F)F)OCCO2)cc1 [compound 174]
[1]; [3]
  Test A disease control rating: 0%
[2]; [4]
  Test B disease control rating: 0%

Source: patent US20240122180A1, “FUNGICIDAL HALOMETHYL KETONES AND HYDRATES AND THEIR MIXTURES” (FMC Corporation, priority 2020, published 2024)
